Assays:
[1] = test system: KM12; assay: NCI in vitro DTP human cell line screen, KM12; format: cell-based; conditions: Colon Cancer, 1.00E−5 Molar
Protocol: (§1) Then, a cell toxicity assay of the cancer lines made by National Cancer Institute will be discussed as follows. The cell toxicity assay is performed by choosing ten compounds (existing certification numbers) from the 59 compounds disclosed in the present invention first.

[2] = test system: HS 578-T; assay: NCI in vitro DTP human cell line screen, HS 578-T; format: cell-based; conditions: Breast Cancer, 1.00E−5 Molar
Protocol: as §1

[3] = test system: SNB-19; assay: NCI in vitro DTP human cell line screen, SNB-19; format: cell-based; conditions: CNS Cancer, 1.00E−5 Molar
Protocol: as §1

[4] = test system: MDA-MB-468; assay: NCI in vitro DTP human cell line screen, MDA-MB-468; format: cell-based; conditions: Breast Cancer, 1.00E−5 Molar
Protocol: as §1

[5] = test system: OVCAR-4; assay: NCI in vitro DTP human cell line screen, OVCAR-4; format: cell-based; conditions: Ovarian Cancer, 1.00E−5 Molar
Protocol: as §1

[6] = test system: OVCAR-3; assay: NCI in vitro DTP human cell line screen, OVCAR-3; format: cell-based; conditions: Ovarian Cancer, 1.00E−5 Molar
Protocol: as §1

[7] = test system: SK-MEL-5; assay: NCI in vitro DTP human cell line screen, SK-MEL-5; format: cell-based; conditions: Melanoma, 1.00E−5 Molar
Protocol: as §1

[8] = test system: DU145; assay: NCI in vitro DTP human cell line screen, DU145; format: cell-based; conditions: Prostate Cancer, 1.00E−5 Molar
Protocol: as §1

[9] = test system: HT29; assay: NCI in vitro DTP human cell line screen, HT29; format: cell-based; conditions: Colon Cancer, 1.00E−5 Molar
Protocol: as §1

[10] = test system: PC-3; assay: NCI in vitro DTP human cell line screen, PC-3; format: cell-based; conditions: Prostate Cancer, 1.00E−5 Molar
Protocol: as §1

[11] = test system: NCI-H522; assay: NCI in vitro DTP human cell line screen, NCI-H522; format: cell-based; conditions: Non-Small Cell Lung Cancer, 1.00E−5 Molar
Protocol: as §1

[12] = test system: UACC-257; assay: NCI in vitro DTP human cell line screen, UACC-257; format: cell-based; conditions: Melanoma, 1.00E−5 Molar
Protocol: as §1

[13] = test system: 60 cancer lines; assay: NCI cell toxicity assay of 60 cancer lines, whole panel summary; format: cell-based, human; conditions: 1.00E−5 Molar
Protocol: as §1

[14] = test system: SR; assay: NCI in vitro DTP human cell line screen, SR; format: cell-based; conditions: Leukemia, 1.00E−5 Molar
Protocol: as §1

[15] = test system: SK-OV-3; assay: NCI in vitro DTP human cell line screen, SK-OV-3; format: cell-based; conditions: Ovarian Cancer, 1.00E−5 Molar
Protocol: as §1

[16] = test system: A3 cell lines; assay: MTT assay, A3 cell lines (lung cancer stem cell); format: cell-based
Excerpt: Please to FIG. 4B, various cell viabilities of the A3 cell lines can be obtained through the MTT assay and illustrated in FIG. 4B while the compounds No. 1˜30 are used to treat A3 cell lines, wherein A3 cell lines are lung cancer stem cell.

[17] = test system: BT-549; assay: NCI in vitro DTP human cell line screen, BT-549; format: cell-based; conditions: Breast Cancer, 1.00E−5 Molar
Protocol: as §1

[18] = test system: SNB-75; assay: NCI in vitro DTP human cell line screen, SNB-75; format: cell-based; conditions: CNS Cancer, 1.00E−5 Molar
Protocol: as §1

[19] = test system: MCF7; assay: NCI in vitro DTP human cell line screen, MCF7; format: cell-based; conditions: Breast Cancer, 1.00E−5 Molar
Protocol: as §1

[20] = MTT assay, HEL299 fibroblast; format: cell-based; conditions: human
Excerpt: Please refer to FIG. 4C, various cell viabilities of the HEL299 cell lines can be obtained through the MTT assay while the compounds No. 1˜30 are used to treat HEL299 cell lines, wherein HEL299 cell lines are fibroblast.

[21] = test system: HCT-15; assay: NCI in vitro DTP human cell line screen, HCT-15; format: cell-based; conditions: Colon Cancer, 1.00E−5 Molar
Protocol: as §1

[22] = test system: RPMI-8226; assay: NCI in vitro DTP human cell line screen, RPMI-8226; format: cell-based; conditions: Leukemia, 1.00E−5 Molar
Protocol: as §1

[23] = test system: T-47D; assay: NCI in vitro DTP human cell line screen, T-47D; format: cell-based; conditions: Breast Cancer, 1.00E−5 Molar
Protocol: as §1

[24] = test system: MOLT-4; assay: NCI in vitro DTP human cell line screen, MOLT-4; format: cell-based; conditions: Leukemia, 1.00E−5 Molar
Protocol: as §1

[25] = test system: HOP-62; assay: NCI in vitro DTP human cell line screen, HOP-62; format: cell-based; conditions: Non-Small Cell Lung Cancer, 1.00E−5 Molar
Protocol: as §1

[26] = test system: SK-MEL-28; assay: NCI in vitro DTP human cell line screen, SK-MEL-28; format: cell-based; conditions: Melanoma, 1.00E−5 Molar
Protocol: as §1

[27] = test system: OVCAR-8; assay: NCI in vitro DTP human cell line screen, OVCAR-8; format: cell-based; conditions: Ovarian Cancer, 1.00E−5 Molar
Protocol: as §1

[28] = test system: MALME-3M; assay: NCI in vitro DTP human cell line screen, MALME-3M; format: cell-based; conditions: Melanoma, 1.00E−5 Molar
Protocol: as §1

[29] = test system: SN12C; assay: NCI in vitro DTP human cell line screen, SN12C; format: cell-based; conditions: Renal Cancer, 1.00E−5 Molar
Protocol: as §1

[30] = test system: SK-MEL-2; assay: NCI in vitro DTP human cell line screen, SK-MEL-2; format: cell-based; conditions: Melanoma, 1.00E−5 Molar
Protocol: as §1

[31] = test system: A control cell lines; assay: MTT assay, A control cell lines (lung cancer cell); format: cell-based
Excerpt: Please refer to Table 1 and FIGS. 4A-4C. According to a MTT assay (Table 1), various cell viabilities of the A control cell lines can be obtained and illustrated in FIG. 4A while the compounds No. 2˜30 are used to treat A control cell lines, wherein A control cell lines are lung cancer cell.

[32] = test system: HCT-116; assay: NCI in vitro DTP human cell line screen, HCT-116; format: cell-based; conditions: Colon Cancer, 1.00E−5 Molar
Protocol: as §1

[33] = test system: TK-10; assay: NCI in vitro DTP human cell line screen, TK-10; format: cell-based; conditions: Renal Cancer, 1.00E−5 Molar
Protocol: as §1

[34] = test system: ACHN; assay: NCI in vitro DTP human cell line screen, ACHN; format: cell-based; conditions: Renal Cancer, 1.00E−5 Molar
Protocol: as §1

[35] = test system: NCI-H460; assay: NCI in vitro DTP human cell line screen, NCI-H460; format: cell-based; conditions: Non-Small Cell Lung Cancer, 1.00E−5 Molar
Protocol: as §1

[36] = test system: SF-268; assay: NCI in vitro DTP human cell line screen, SF-268; format: cell-based; conditions: CNS Cancer, 1.00E−5 Molar
Protocol: as §1

[37] = test system: NCI/ADR-RES; assay: NCI in vitro DTP human cell line screen, NCI/ADR-RES; format: cell-based; conditions: Ovarian Cancer, 1.00E−5 Molar
Protocol: as §1

[38] = test system: SW-620; assay: NCI in vitro DTP human cell line screen, SW-620; format: cell-based; conditions: Colon Cancer, 1.00E−5 Molar
Protocol: as §1

[39] = test system: UO-31; assay: NCI in vitro DTP human cell line screen, UO-31; format: cell-based; conditions: Renal Cancer, 1.00E−5 Molar
Protocol: as §1

[40] = test system: HL-60(TB); assay: NCI in vitro DTP human cell line screen, HL-60(TB); format: cell-based; conditions: Leukemia, 1.00E−5 Molar
Protocol: as §1

[41] = test system: SF-539; assay: NCI in vitro DTP human cell line screen, SF-539; format: cell-based; conditions: CNS Cancer, 1.00E−5 Molar
Protocol: as §1

[42] = test system: COLO 205; assay: NCI in vitro DTP human cell line screen, COLO 205; format: cell-based; conditions: Colon Cancer, 1.00E−5 Molar
Protocol: as §1

[43] = test system: IGROV1; assay: NCI in vitro DTP human cell line screen, IGROV1; format: cell-based; conditions: Ovarian Cancer, 1.00E−5 Molar
Protocol: as §1

[44] = test system: U251; assay: NCI in vitro DTP human cell line screen, U251; format: cell-based; conditions: CNS Cancer, 1.00E−5 Molar
Protocol: as §1

[45] = test system: RXF 393; assay: NCI in vitro DTP human cell line screen, RXF 393; format: cell-based; conditions: Renal Cancer, 1.00E−5 Molar
Protocol: as §1

[46] = test system: NCI-H322M; assay: NCI in vitro DTP human cell line screen, NCI-H322M; format: cell-based; conditions: Non-Small Cell Lung Cancer, 1.00E−5 Molar
Protocol: as §1

[47] = test system: MDA-MB-231/ATCC; assay: NCI in vitro DTP human cell line screen, MDA-MB-231/ATCC; format: cell-based; conditions: Breast Cancer, 1.00E−5 Molar
Protocol: as §1

[48] = test system: 786-0; assay: NCI in vitro DTP human cell line screen, 786-0; format: cell-based; conditions: Renal Cancer, 1.00E−5 Molar
Protocol: as §1

[49] = test system: LOX IMVI; assay: NCI in vitro DTP human cell line screen, LOX IMVI; format: cell-based; conditions: Melanoma, 1.00E−5 Molar
Protocol: as §1

[50] = test system: HCC-2998; assay: NCI in vitro DTP human cell line screen, HCC-2998; format: cell-based; conditions: Colon Cancer, 1.00E−5 Molar
Protocol: as §1

[51] = test system: NCI-H226; assay: NCI in vitro DTP human cell line screen, NCI-H226; format: cell-based; conditions: Non-Small Cell Lung Cancer, 1.00E−5 Molar
Protocol: as §1

[52] = test system: OVCAR-5; assay: NCI in vitro DTP human cell line screen, OVCAR-5; format: cell-based; conditions: Ovarian Cancer, 1.00E−5 Molar
Protocol: as §1

[53] = test system: HOP-92; assay: NCI in vitro DTP human cell line screen, HOP-92; format: cell-based; conditions: Non-Small Cell Lung Cancer, 1.00E−5 Molar
Protocol: as §1

[54] = test system: M14; assay: NCI in vitro DTP human cell line screen, M14; format: cell-based; conditions: Melanoma, 1.00E−5 Molar
Protocol: as §1

[55] = test system: UACC-62; assay: NCI in vitro DTP human cell line screen, UACC-62; format: cell-based; conditions: Melanoma, 1.00E−5 Molar
Protocol: as §1

[56] = test system: CCRF-CEM; assay: NCI in vitro DTP human cell line screen, CCRF-CEM; format: cell-based; conditions: Leukemia, 1.00E−5 Molar
Protocol: as §1

[57] = test system: NCI-H23; assay: NCI in vitro DTP human cell line screen, NCI-H23; format: cell-based; conditions: Non-Small Cell Lung Cancer, 1.00E−5 Molar
Protocol: as §1

[58] = test system: K562; assay: NCI in vitro DTP human cell line screen, K562; format: cell-based; conditions: Leukemia, 1.00E−5 Molar
Protocol: as §1

O=c1c2ccccc2sc2c(Cl)c(SCc3ccc(F)cc3)ccc12 [No. 24, 4-Chloro-3-(4-fluorobenzylthio)-9H-thioxanthen-9-one]
Growth Percent [1]: 102.36%
Growth Percent [2]: 67.70%
Growth Percent [3]: 77.05%
Growth Percent [4]: 92.16%
Growth Percent [5]: 39.31%
Growth Percent [6]: 105.27%
Growth Percent [7]: 95.97%
Growth Percent [8]: 103.70%
Growth Percent [9]: 79.24%
Growth Percent [10]: 86.19%
Growth Percent [11]: 76.14%
Growth Percent [12]: 103.43%
Growth Percent, Mean ([13]; mean over all cell lines): 85.42%
cancer types with the better inhibition effect (in words) ([13]; summary of Table 3): better inhibition effect on Leukemia and central nervous system cancer
Growth Percent [14]: 23.41%
Growth Percent [15]: 90.11%
cell viabilities of A3 cell lines (MTT assay) [16]: 47.8%
Growth Percent [17]: 88.80%
Growth Percent [18]: 64.79%
Growth Percent [19]: 89.93%
viability [20]: 62.7 ± 4.89%
Growth Percent [21]: 84.86%
Growth Percent [22]: 92.73%
Growth Percent [23]: 81.88%
Growth Percent [24]: 93.42%
Growth Percent [25]: 70.93%
Growth Percent [26]: 107.78%
Growth Percent [27]: 85.39%
Growth Percent [28]: 93.42%
Growth Percent [29]: 84.46%
Growth Percent [30]: 108.61%
cell viabilities of A control cell lines (MTT assay) [31]: 35.5%
Growth Percent [32]: 76.97%
Growth Percent [33]: 83.61%
Growth Percent [34]: 60.81%
Growth Percent [35]: 60.27%
Growth Percent [36]: 95.00%
Growth Percent [37]: 92.71%
Growth Percent [38]: 78.63%
Growth Percent [39]: 95.13%
Growth Percent [40]: 109.87%
Growth Percent [41]: 103.66%
Growth Percent [42]: 86.59%
Growth Percent [43]: 79.84%
Growth Percent [44]: 54.73%
Growth Percent [45]: 92.20%
Growth Percent [46]: 89.87%
Growth Percent [47]: 81.64%
Growth Percent [48]: 91.67%
Growth Percent [49]: 81.78%
Growth Percent [50]: 100.08%
Growth Percent [51]: 92.71%
Growth Percent [52]: 108.14%
Growth Percent [53]: 76.43%
Growth Percent [54]: 93.91%
Growth Percent [55]: 85.61%
Growth Percent [56]: 68.02%
Growth Percent [57]: 93.31%
Growth Percent [58]: 90.35%
